# From patent US20230414794A1, “PSMA INHIBITOR, COMPOUND AND APPLICATION” (PEKING UNIVERSITY FIRST HOSPITAL, priority 2019, published 2023)
# Assays:
# PSMA = PSMA (Homo sapiens (Human), UniProt Q04609); assay: PSMA inhibitory activity (NAAG hydrolysis by LNCaP cell lysate, Amplex Red glutamate detection); assay type: biochemical; details: for Ki / inhibition at 6.667 µM: LNCaP cell lysate; for Ki: NAAG substrate, Ki by Cheng-Prusoff equation; for inhibition at 6.667 µM: inhibitor 6667 nM, read-out: % inhibited at 6667 nM
# Protocol: A LNCaP cell lysate (total protein concentration: 125 μg/mL) was prepared in advance. 25 μL of the cell lysate, 25 μL of the inhibitor and 25 μL of N-acetylaspartylglutamate (NAAG, 16 μM) were incubated together in a 96-well plate (Costar Assay Plate, Cat#. 3925) at 37° C. for 180 min. The amount of glutamate released by hydrolysis of NAAG was measured using an Amplex Red Glutamic Acid Kit (Molecular Probes Inc., Eugene, OR) working solution (50 μL) after incubation for 30 min Fluorescence were measured using Synergy H1 Hybrid Reader (BioTek Instruments, Inc., Winooski, Vermont) at excitation wavelength of 530 nm and emission wavelength of 590 nm. An inhibition curve was plotted by a semi-logarithmic method. […] The inhibition constant (Ki) of the enzyme was calculated by the Cheng-Prusof equation. Each experiment was performed in triplicates. Data analysis was performed by GraphPad Prism 7.0 (GraphPad Software, San Diego, California).
# PSMA (LNCaP cells) = PSMA (LNCaP cells) (Homo sapiens (Human), UniProt Q04609); assay: Fluorescence microscopy imaging of LNCaP cells stained with Compound S1, with or without Compound S2; assay type: cell-based; details: room temperature
# Protocol: LNCaP cells were diluted to 1×10^6/mL with RPMI-1640 (containing 10% FBS). For staining, the cells and 2 μM Compound S1 were incubated at room temperature for 1 h. For the inhibition group, the cells were incubated with 2 μM Compound S1 and 200 μM Compound S2 together for 1 h at room temperature. After the staining was completed, excess dye compound was removed by centrifugation, and the cells were resuspended in cold PBS and blown well, 100 μL of which was taken and added to a 96-well plate, left for several minutes and then observed under a fluorescence microscope.
# [1] = target: PSMA (LNCaP cells with high PSMA expression) (Homo sapiens (Human), UniProt Q04609); assay: Flow cytometric analysis: inhibition of YC-36 staining of LNCaP cells; assay type: cell-based; details: 2 μM YC-36 plus 200 μM Compound S2 (100×), 1 h, room temperature, flow cytometry
# Protocol: LNCaP cells were diluted to 1×10^6/mL with RPMI-1640 (containing 10% FBS). For staining, the cells and 2 μM YC-36 were incubated at room temperature for 1 h, and then washed twice with the same medium. The cells were resuspended in cold PBS. For the inhibition group, the cells were incubated with 2 μM YC-36 and 200 μM Compound S2 for 1 hour at room temperature. The cells were analyzed by BD Influs Cell Sorter (BD Biosciences, San Jose, CA95131, USA) flow cytometry and the FlowJo software, and the results are shown in FIG. 6. The black area (left in Panel A) represents the LNCaP cells without dye, and the blue area (right in Panel A) represents the LNCaP cells after co-incubation with YC-36.
# YC-36 is a fluorescent molecule having a high affinity for PSMA, and can selectively stain cells with high PSMA expression (Kiess, A.P., et al., Auger Radiopharmaceutical Therapy Targeting Prostate […]. J Nucl Med, 2015. 56(9): p. 1401-1407).
# Chain of PSMA (Q04609 whole entry): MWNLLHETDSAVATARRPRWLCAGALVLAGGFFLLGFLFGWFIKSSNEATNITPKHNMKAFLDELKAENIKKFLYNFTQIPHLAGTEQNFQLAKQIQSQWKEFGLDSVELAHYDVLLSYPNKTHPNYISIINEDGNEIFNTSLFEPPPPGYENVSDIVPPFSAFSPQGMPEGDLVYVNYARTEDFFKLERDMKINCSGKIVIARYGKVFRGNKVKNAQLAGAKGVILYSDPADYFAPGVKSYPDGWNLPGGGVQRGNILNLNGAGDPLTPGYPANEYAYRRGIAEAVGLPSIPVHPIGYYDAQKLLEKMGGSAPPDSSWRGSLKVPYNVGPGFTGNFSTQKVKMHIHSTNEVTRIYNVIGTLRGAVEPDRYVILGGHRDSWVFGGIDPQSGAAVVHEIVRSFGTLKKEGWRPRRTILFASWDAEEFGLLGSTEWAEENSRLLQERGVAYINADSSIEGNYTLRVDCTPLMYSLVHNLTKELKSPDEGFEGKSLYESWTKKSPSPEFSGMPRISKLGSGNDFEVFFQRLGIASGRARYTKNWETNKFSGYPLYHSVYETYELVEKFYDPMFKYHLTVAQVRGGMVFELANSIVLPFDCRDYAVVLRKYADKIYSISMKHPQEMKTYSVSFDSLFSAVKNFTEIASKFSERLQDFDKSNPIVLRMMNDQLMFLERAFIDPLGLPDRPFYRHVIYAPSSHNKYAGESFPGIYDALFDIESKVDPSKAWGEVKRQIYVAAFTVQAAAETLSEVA
# Chain of PSMA (LNCaP cells) (Q04609 whole entry): as above
# Chain of PSMA (LNCaP cells with high PSMA expression) (Q04609 whole entry): as above
SMILES,Ki (PSMA) [nM],"staining of LNCaP cells (PSMA (LNCaP cells); 2 μM Compound S1, 1 h)",inhibition at 6.667 µM (PSMA) [%],"affinity relative to ZJ-43 (PSMA; fold higher affinity than ZJ-43, from Ki in Table 1) [times]","inhibition of staining of LNCaP cells by the blue dye Compound S1 (PSMA (LNCaP cells); 2 μM Compound S1 plus 200 μM Compound S2 (100×), 1 h)",inhibition of staining of LNCaP cells by YC-36 [1]
"Nc1ccc2c(CC(=O)NCCCC[C@H](NC(=O)N[C@@H](CNC(=O)C(=O)O)C(=O)O)C(=O)O)cc(=O)oc2c1 [Compound S1, (45,85)-15-(7-amino-2-oxo-2H-chromen-4-yl)-1,6,14-trioxo-2,5,7,13-tetraazapentadecane-1,4,8-tricarboxylic acid]",5.96,stained the cells by specific binding to PSMA,–,–,–,–
"CC(C)C[C@H](NC(=O)N[C@@H](CNC(=O)c1c[nH]nn1)C(=O)O)C(=O)O [Comparative Compound DS3, (S)-2-(3-((S)-1-carboxy-2-(1H-1,2,3-triazole-4-carboxamido)ethyl)ureido)-4-methylpentanoic acid]",> 1000,–,47.3,–,–,–
"O=C(N[C@@H](CCCCNC(=O)c1ccc(I)cc1)C(=O)O)N[C@@H](CNC(=O)C(=O)O)C(=O)O [Compound S2, (45,85)-14-(4-iodophenyl)-1,6,14-trioxo-2,5,7,13-tetraazatetradecane-1,4,8-tric arboxylic acid]",0.08,–,–,44,significantly inhibit,significantly inhibited
"CC(C)C[C@H](NC(=O)N[C@@H](CNC(=O)C(=O)O)C(=O)O)C(=O)O [Compound S3, (S)-2-(3-((S)-1-carboxy-2-(carboxyformamido)ethyl)ureido)-4-methylpentanoic acid]",5.69,–,–,–,–,–
"CC(C)C[C@H](NC(=O)N[C@@H](CNC(=O)c1c[nH]cn1)C(=O)O)C(=O)O [Comparative Compound DS2, (S)-2-(3-((S)-1-carboxy-2-(1H-imidazole-4-carboxamido)ethyl)ureido)-4-methylpentanoic acid]",> 1000,–,20.6,–,–,–
"CC(C)C[C@H](NC(=O)N[C@@H](CNC(=O)c1ncc[nH]1)C(=O)O)C(=O)O [Comparative Compound DS1, (S)-2-(3-((S)-1-carboxy-2-(1H-imidazole-2-carboxamido)ethyl)ureido)-4-methylpentanoic acid]",> 1000,–,10.7,–,–,–
